{
  "source": "patent US11591323B2",
  "about": "“Muscarinic agonists as non-steroidal and non-opioid analgesics and methods of use thereof” (Barry University, priority 2019, dated 2023)",
  "type_in_all_cases": "cell-based",
  "key": {"[1]": {"test_system": "ventral tegmental area (M5)", "assay": "accumulation of IPX in dissipated rat ventral tegmental area", "conditions": "dissipated rat VTA, in words", "experimental": "(§1) Effects of compounds 6A and 7A were then measured ex vivo in dissipated rat tissues (FIG. 5). Accumulation of IPX was measured in dissipated brain cortex (rich in M1 & M3), submaxillary gland (M1 & M3), and ventral tegmental area (M5). Native tissues express about 10-times less muscarinic receptors than CHO cell lines. Accumulation of cAMP was measured in cerebellum (M2) and striatum (M4).\n(§2) Rat dissipated tissues: Suspension of dissipated tissues from rat brain cortex, cerebellum, striatum, ventral tegmental area (VTA) and submaxillary glands was prepared as described previously in supplementary methods. Adult 8-weeks old male Wistar rats were scarified by cervical dislocation in accordance with current legislative and guidelines under permission of Czech Ministry of Agriculture 16OZ23113/2017-17214. Tissues were dissected immediately. Submaxillary glands were minced by scissors. Tissues were dispersed by incubation for 15 min at 37° C. in KHB supplemented with trypsin and trituration every 5 min. Large undissipated parts were removed by cell mesh. […]\n(§3) Measurements of the production of cAMP and inositol phosphates: Levels of second messengers cAMP and inositol phosphates were determined in radiochemical chromatography assays as described previously. […] Samples were applied to alumina columns (1.5 g of alumina per column), washed with 2 ml ammonium acetate (pH=7.0) and eluted from columns with 4 ml ammonium acetate and measured by liquid scintillation spectrometry. […] After separation of water and organic phases, 0.6 ml of water phase was applied to Dowex columns (1.5 g of Dowex per column), washed by 20 ml of 60 mM ammonium formate/5 mM sodium borate buffer and eluted from columns with 4 ml of 1M ammonium formate/0.1 formic acid buffer and measured by liquid scintillation spectrometry.\n(§4) To exclude the possibility that the observed effects of compounds 6A and 7A are the result of overexpression in the heterologous system, functional response to the compounds was measured ex vivo in dissipated native rat tissues. […] Accumulation of cAMP was measured in M2-rich cerebellum and M4-rich striatum."}, "[2]": {"biological_target": "T1, M2 muscarinic receptor (Homo sapiens, UniProt P08172)", "T1 sequence (P08172 1-466)": "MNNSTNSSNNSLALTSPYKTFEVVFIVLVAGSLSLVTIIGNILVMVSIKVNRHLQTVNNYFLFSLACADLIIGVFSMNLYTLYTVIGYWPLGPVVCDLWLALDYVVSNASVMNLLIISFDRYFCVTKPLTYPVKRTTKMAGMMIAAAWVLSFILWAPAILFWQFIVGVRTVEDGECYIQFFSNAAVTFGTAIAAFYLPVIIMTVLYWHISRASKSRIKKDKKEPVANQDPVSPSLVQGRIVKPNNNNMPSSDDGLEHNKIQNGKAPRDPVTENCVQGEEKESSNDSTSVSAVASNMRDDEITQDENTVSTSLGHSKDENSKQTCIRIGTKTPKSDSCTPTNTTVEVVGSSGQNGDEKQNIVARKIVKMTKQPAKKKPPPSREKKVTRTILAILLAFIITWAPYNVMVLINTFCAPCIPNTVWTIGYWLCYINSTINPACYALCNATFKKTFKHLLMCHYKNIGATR", "assay": "accumulation of cAMP at PTX-treated CHO cells expressing M2", "design": "host or cells: CHO cells, stably transfected", "conditions": "for change in accumulation of cAMP: PTX-treated M2 CHO cells, forskolin-stimulated and basal, in words", "experimental": "(§5) To exclude the possibility that activation of the non-preferential Gs pathway was obscured by activation of the preferential Gi/o pathway, accumulation of cAMP was measured in CHO cells expressing M2 or M4 receptors where Gi/o G-proteins were inactivated by pertussis toxin (PTX) treatment (FIG. 4).\nCell culture and membrane preparation: Chinese hamster ovary (CHO) cells stably transfected with the genes of individual human variants of muscarinic receptors were purchased from Missouri S&T cDNA Resource Center (Rolla, Mo., USA). Fresh primary cell culture of smooth muscle cells (SMC) from rat aorta prepared as previously described was kindly provided by Dr. Lucie Bačáková. Primary culture of SMCs was grown to confluency in 75 cm^2 flasks in Dulbecco's modified Eagle's medium supplemented with 10% fetal bovine serum. Up to 6-times, 2 million of cells were sub-cultured. […] Cells were grown to confluency in 75 cm^2 flasks in Dulbecco's modified Eagle's medium supplemented with 10% fetal bovine serum and 2 million of cells were subcultured in 100 mm Petri dishes. Medium was supplemented with 5 mM butyrate for the last 24 hours of cultivation to increase receptor expression. When needed, cells were cultivated with pertussis toxin at a final concentration of 25 ng/ml for the 24 hours. Cells were detached by mild trypsinization on day 5 after subculture. Detached cells were washed twice in 50 ml of phosphate-buffered saline and 3 min centrifugation at 250×g. […]\nas §3\nas §5, with “[…]” for “Gs”, “11). […]” for “4).”"}, "[3]": {"test_system": "submaxillary gland (rich in M3)", "assay": "accumulation of IPX in dissipated rat submaxillary gland", "conditions": "in words", "experimental": "as §1, §2, §3, §4"}},
  "data": [
    {"smiles": "C[N+]1(Cc2cccs2)CC=CCC1.[I-]", "note": "(stereo not shown) [Compound 7A, 1-methyl-1-[(thiophen-2-yl)methyl]-1,2,3,6-tetrahydropyridin-1-ium iodide]", "values": [
      {"measurement": "accumulation of IPX", "setting": "[1]", "value": "negligible increase in IPX"},
      {"measurement": "change in accumulation of cAMP", "setting": "[2]", "value": "did not change cAMP levels"},
      {"measurement": "accumulation of IPX", "setting": "[3]", "value": "no increase in IPX levels"}
    ]},
    {"smiles": "C[N+](C)(C)CCOC(N)=O", "note": "[carbachol, reference compound]", "values": [
      {"measurement": "accumulation of IPX", "setting": "[1]", "value": "profound accumulation of IPX"},
      {"measurement": "EC50 in PTX treated cells versus non-treated cells", "setting": "[2]; M2", "value": "the same"},
      {"measurement": "change in accumulation of cAMP", "setting": "[2]", "value": "about two-fold increase"},
      {"measurement": "accumulation of IPX", "setting": "[3]", "value": "profound accumulation of IPX"}
    ]},
    {"smiles": "C1=CCN(Cc2cccs2)CC1.Cl", "note": "[Compound 6A, 1-[(thiophen-2-yl)methyl]-1,2,3,6-tetrahydropyridin-1-ium chloride]", "values": [
      {"measurement": "accumulation of IPX", "setting": "[1]", "value": "negligible increase in IPX"},
      {"measurement": "change in accumulation of cAMP", "setting": "[2]", "value": "did not change cAMP levels"},
      {"measurement": "accumulation of IPX", "setting": "[3]", "value": "no increase in IPX levels"}
    ]}
  ]
}
